Measured values taken from ChEMBL document CHEMBL2021792, “Tetrahydro-naphthols as orally available TRPV1 inhibitors” (Bioorg Med Chem Lett, 2012).

Key:
[1] = AUC in rat at 1 mg/kg, po; assay type: ADME, organism-based; set-up: dose 1 mg/kg, route oral; conditions: plasma
[2] = target: Transient receptor potential cation channel subfamily V member 1 (Homo sapiens, UniProt Q8NER1); assay: Antagonist activity at human TRPV1 expressed in CHOluc9aeq cells assessed as inhibition of capsaicin-stimulated response by aequorin and CRE-lucifearase reporter gene assay; assay type: functional, cell-based
Sequence of Transient receptor potential cation channel subfamily V member 1 (Q8NER1 whole entry): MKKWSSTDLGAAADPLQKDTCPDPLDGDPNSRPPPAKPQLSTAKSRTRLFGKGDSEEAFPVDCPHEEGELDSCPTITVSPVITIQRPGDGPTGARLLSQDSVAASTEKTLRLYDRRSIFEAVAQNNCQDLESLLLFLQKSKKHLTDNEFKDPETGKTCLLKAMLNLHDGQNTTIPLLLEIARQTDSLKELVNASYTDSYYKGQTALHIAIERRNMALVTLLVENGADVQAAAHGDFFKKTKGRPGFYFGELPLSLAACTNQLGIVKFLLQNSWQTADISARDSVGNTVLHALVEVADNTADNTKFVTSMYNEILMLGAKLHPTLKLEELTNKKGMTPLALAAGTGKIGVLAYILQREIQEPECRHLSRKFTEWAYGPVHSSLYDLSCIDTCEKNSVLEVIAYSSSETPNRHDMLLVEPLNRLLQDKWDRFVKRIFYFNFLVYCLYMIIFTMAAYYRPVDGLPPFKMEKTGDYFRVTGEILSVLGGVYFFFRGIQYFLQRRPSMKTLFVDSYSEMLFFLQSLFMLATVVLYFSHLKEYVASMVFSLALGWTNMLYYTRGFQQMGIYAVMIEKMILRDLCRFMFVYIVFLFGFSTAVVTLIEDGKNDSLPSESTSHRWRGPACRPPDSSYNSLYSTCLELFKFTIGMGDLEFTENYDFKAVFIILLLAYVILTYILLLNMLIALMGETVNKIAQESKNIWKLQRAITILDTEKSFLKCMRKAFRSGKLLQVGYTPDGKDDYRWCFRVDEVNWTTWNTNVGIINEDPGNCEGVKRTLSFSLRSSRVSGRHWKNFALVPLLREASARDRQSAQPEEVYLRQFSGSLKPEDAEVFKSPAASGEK

[3] = tested on: Plasma; assay: Unbound fraction in rat plasma; assay type: ADME, cell-free
[4] = Oral bioavailability in rat at 1 mg/kg; assay type: ADME, organism-based; conditions: in vivo

| Compound | AUC [1] [µg·h/mL] | IC50 [2] [µM] | other results |
| --- | --- | --- | --- |
| NS(=O)(=O)Cc1ccccc1NC(=O)Nc1ccc(Cl)c(C(F)(F)F)c1 |  | 0.46 |  |
| Nc1cc2c(NC(=O)Nc3ccc(Cl)c(C(F)(F)F)c3)cccc2cc1Cl |  | > 1 |  |
| O=C(Nc1ccc(Cl)c(C(F)(F)F)c1)Nc1cccc2nn[nH]c12 |  | 0.18 |  |
| O=C(Nc1ccc(Cl)c(C(F)(F)F)c1)Nc1ccccc1CCCO |  | 0.22 |  |
| CS(=O)(=O)Nc1ccc2cccc(NC(=O)Nc3ccc(Cl)c(C(F)(F)F)c3)c2c1 | 0.709 | > 1 |  |
| O=C(Nc1ccc(Cl)c(C(F)(F)F)c1)Nc1cccc2c1CC(O)CC2 (racemic) | 0.65 |  | Fu [3]: 0.28%; bioavailability [4]: 74% |
| NS(=O)(=O)c1ccccc1NC(=O)Nc1ccc(Cl)c(C(F)(F)F)c1 |  | > 1 |  |
| O=C(Nc1ccc(Cl)c(C(F)(F)F)c1)Nc1ccccc1CO |  | 0.33 |  |
| CC(=O)Nc1ccc2cccc(NC(=O)Nc3ccc(Cl)c(C(F)(F)F)c3)c2c1 | 1.59 | 0.53 |  |
| O=C(Nc1cccc(CCO)c1)Nc1ccc(Cl)c(C(F)(F)F)c1 | 0.075 | 0.23 |  |
| NCCc1ccccc1NC(=O)Nc1ccc(Cl)c(C(F)(F)F)c1 |  | > 1 |  |
| NS(=O)(=O)c1ccc2cccc(NC(=O)Nc3ccc(Cl)c(C(F)(F)F)c3)c2c1 |  | 0.71 |  |

Further lines, with some results ahead:

| AUC [1] [µg·h/mL] | IC50 [2] [µM] | Compound | other results |
| --- | --- | --- | --- |
| 0.217 | 0.034 | Nc1ccc2cccc(NC(=O)Nc3ccc(Cl)c(C(F)(F)F)c3)c2c1 |  |
| 0.012 | 0.14 | O=C(Nc1ccc(Cl)c(C(F)(F)F)c1)Nc1cccc2ccc(NCc3ccccc3)cc12 |  |
| 0.176 | 0.067 | O=C(Nc1ccc(Cl)c(C(F)(F)F)c1)Nc1cccc2cc[nH]c12 |  |
|  | 0.087 | O=C(Nc1ccc(Cl)c(C(F)(F)F)c1)Nc1cccc2c1CC(CO)CC2 (racemic) |  |
|  | 0.032 | O=C(Nc1ccc(Cl)c(C(F)(F)F)c1)Nc1cccc2nc(C(F)(F)F)[nH]c12 |  |
| 0.125 | 0.03 | CNc1ccc2cccc(NC(=O)Nc3ccc(Cl)c(C(F)(F)F)c3)c2c1 |  |
|  | 0.016 | Cc1cccc(NC(=O)Nc2ccc(Cl)c(C(F)(F)F)c2)c1CCO |  |
|  | 0.045 | O=C(Nc1ccc(Cl)c(C(F)(F)F)c1)Nc1cccc2c(O)cccc12 |  |
|  | 0.093 | CC1CCc2cccc(NC(=O)Nc3ccc(Cl)c(C(F)(F)F)c3)c2C1 (racemic) |  |
|  | 0.084 | O=C(Nc1ccc(Cl)c(C(F)(F)F)c1)Nc1cccc2ccc(C(=O)O)cc12 |  |
|  | 0.018 | O=C(Nc1ccc(Cl)c(C(F)(F)F)c1)Nc1cccc2cc(O)ccc12 |  |
| 0.374 | 0.056 | O=C(Nc1ccc(Cl)c(C(F)(F)F)c1)Nc1ccccc1CCO |  |
|  | 0.13 | O=C(Nc1ccc(Cl)c(C(F)(F)F)c1)Nc1ccc2ccc(O)cc2c1 |  |
|  | 0.0091 | O=C(Nc1ccc(Cl)c(C(F)(F)F)c1)Nc1cccc2ccc(O)c(F)c12 |  |
| 0.53 | 0.033 | O=C(Nc1ccc(Cl)c(C(F)(F)F)c1)Nc1cccc2[nH]ccc12 |  |
|  | 0.058 | Cc1nc2cccc(NC(=O)Nc3ccc(Cl)c(C(F)(F)F)c3)c2[nH]1 |  |
